Test results from US7410974B2, “Halogenated Quinazolinyl nitrofurans as antibacterial agents” (Ulysses Pharmaceutical Products, Inc., priority 2003, dated 2008).
Converted amounts (≈) assume the structure as drawn. Like-named read-outs stand apart in the source and are kept apart here.

Columns and labels:
S. aureus MRSA COL = experiment: MIC broth microdilution (NCCLS); assay type: cell-based, Staphylococcus aureus; settings: S. aureus MRSA COL
How it was run: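 MHBCA, 10^5-10^6 CFU/ml, 2-fold serial dilutions, 24 h at 35° C. Growth read at 650 nm and visually. MIC = lowest concentration with no visible growth.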

[1] = tested on: S. epidermidis ATCC 12228; experiment: MIC broth microdilution (NCCLS); assay type: cell-based, Staphylococcus epidermidis; settings: Staphylococcus epidermidis, ATCC12228; S. epidermidis ATCC 12228; read-out: MIC
How it was run: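 Susceptibility by NCCLS microdilution: checked inoculum 10^5-10^6 CFU/ml, 24 h at 35° C, and growth assessed at 650 nm and by eye. Haemophilus was tested in HTM medium and Listeria with laked horse blood, each incubated under 5% CO2.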

E. faecium ATCC 35667 = experiment: MIC broth microdilution (NCCLS); assay type: cell-based, Enterococcus faecium; settings: Enterococcus faecium, ATCC35667, E. faecium ATCC 35667; read-out: MIC
How it was run: (§1)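 NCCLS broth microdilution; inoculum 10^5-10^6 CFU/ml; 2-fold serial dilutions; 35° C, 24 h; A650 plus visual read. Media: MHBCA (S. saprophyticus, E. faecium), MHBCA + 2% laked horse blood (Listeria), HTM (Haemophilus), the last two under 5% CO2.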

C. jejuni ATCC 33291 = experiment: MIC broth microdilution (NCCLS), fastidious bacteria; assay type: cell-based; settings: Campylobacter jejuni, ATCC33291; C. jejuni ATCC 33291; MHBCA with 2% laked horse blood, 5% CO2; read-out: MIC
How it was run: as §1

H. influenzae ATCC 49247 = experiment: as above; assay type: cell-based; settings: Haemophilus influenzae, ATCC49247, HTM, 5% CO2
How it was run: as §1

H. influenzae ATCC 49766 = experiment: as above; assay type: cell-based; settings: Haemophilus influenzae, ATCC49766, HTM, 5% CO2
How it was run: as §1

[2] = tested on: L. monocytogenes ATCC 13932; experiment: as above; assay type: cell-based; settings: Listeria monocytogenes, ATCC13932, MHBCA with 2% laked horse blood, 5% CO2
How it was run: as §1

B. catarrhalis ATCC 8176 [3] = experiment: as above; assay type: cell-based, Branhamella (Moraxella) catarrhalis; settings: Moraxella catarrhalis, ATCC8176, HTM, 5% CO2
How it was run: as §1

B. fragilis ATCC 25285 = experiment: MIC broth microdilution (NCCLS), anaerobic; assay type: cell-based; settings: Bacteroides fragilis, ATCC25285; B. fragilis ATCC 25285; Wilkins Chalgren broth, anaerobic, 48 hours; read-out: MIC
Procedure: Minimal Inhibitory Concentration (MIC) Determination. Bacteria (primary strain panel, TABLE 1). Susceptibility tests were performed following the recommendations from the National Committee for Clinical Standards (NCCLS). The MICs were determined by a broth microdilution technique using a final volume of 100 μl of cation-adjusted Mueller Hinton Broth (MHBCA) and a bacterial inoculum of 10^5-10^6 Colony Forming Units (CFU)/ml. The inocula were verified and precisely determined by applying 10-μl drops of 10-fold dilutions onto Triptic Soy Agar plates. The CFU were counted after an incubation of 24 h at 35° C. Any experiment showing an inoculum that was more or less than 10^5-10^6 CFU/ml was rejected. Control antibiotics and test compounds were prepared at a concentration equivalent to 2-fold the highest desired final concentration. Compounds were then diluted directly in the 96-well microtiter plates by serial 2-fold dilutions using a multichannel pipette. Microtiter plates were incubated during 24 h at 35° C. and growth was recorded by using a microtiterplate reader at 650 nm as well as by visual observation. The MIC was defined as the lowest concentration of compound yielding no visible growth. […] Fastidious bacteria. The medium used for Listeria monocytogenes, Neisseria meningitidis, and Campylobacter jejuni was MHBCA containing 2% laked horse blood. The medium used for Haemophilus influenzae and Branhamella (Moraxella) catarrhalis was HTM as recommended by the NCCLS. Cultures of these fastidious bacteria were incubated at 35° C. in a 5% CO2 atmosphere. […] The medium used for Bacteroides fragilis was Wilkins Chalgren broth and growth was allowed under an anaerobic atmosphere at 35° C. for 48 hours.

B. catarrhalis ATCC 8176 [4] = experiment: Minimal Bactericidal Concentration (MBC); assay type: cell-based, Branhamella (Moraxella) catarrhalis; settings: Moraxella catarrhalis, ATCC8176, 99.9% killing
How it was run: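 Bactericidal endpoint follows the MIC read: aliquots of every well without visible growth, no fewer than five, go onto TSA. Incubation lasts exactly 24 h at 35° C. Surviving colonies are then counted.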

E. coli ATCC 25922 = experiment: Time-kill curves; assay type: cell-based, Escherichia coli
Procedure: Time-kill curves. The bactericidal action of compounds was also evaluated over time (time-kill curve experiments). A bacterial inoculum of 1×10^5-1×10^7 Colony Forming Units (CFU)/ml was prepared. The inocula were verified and precisely determined by applying 10-μl drops of 10-fold dilutions onto Triptic Soy Agar plates. The CFU were counted after an incubation of 24 h at 35° C. Any experiment showing an inoculum that was more or less than the desired range of CFU/ml was rejected. Time-kill curve experiments were performed in 30 ml of MHB placed in 50-ml shaking flasks over a period of 24 hours. Test compounds and control antibiotics were added at time 0 hour and, at each time point, a sample was removed from flasks and the CFU determined by plate counts as described above. CFU from compound-treated cultures were compared to CFU collected from the control flask without antibiotic. Test compounds and control antibiotics were assayed at the MIC or a multiple of the MIC as determined by a broth microdilution technique as described above.

Solubility in water = assay type: physicochemical; settings: read-out: solubility in water (no visible particles)
Procedure: Solubility of Compounds V and XV. The extent of solubility of compounds was evaluated in water.

[5] = Staphylococcus aureus, MRSA, read-out: MIC

| Structure (SMILES) | MIC (S. aureus MRSA COL) [µg/mL] | MIC (S. aureus MRSA COL; [5]) [µg/mL] | MIC [1] [µg/mL] | MIC (E. faecium ATCC 35667) [µg/mL] | MIC (C. jejuni ATCC 33291) [µg/mL] | MIC (H. influenzae ATCC 49247) [µg/mL] | MIC (H. influenzae ATCC 49766) [µg/mL] | MIC [2] [µg/mL] | MIC (B. catarrhalis ATCC 8176 [3]) [µg/mL] | MIC (B. fragilis ATCC 25285) [µg/mL] | MBC (B. catarrhalis ATCC 8176 [4]) [µg/mL] | time to strongly bactericidal action (time-kill) (E. coli ATCC 25922; E. coli ATCC 25922, at the MIC or a multiple of the MIC, FIG. 2) [h] | bactericidal action compared with ciprofloxacin (time-kill) (E. coli ATCC 25922; E. coli, at their respective MIC or a multiple of the MIC) | solubility (Solubility in water) [µg/mL] |
| --- | --- | --- | --- | --- | --- | --- | --- | --- | --- | --- | --- | --- | --- | --- |
| O=C1CN(/N=C/c2ccc([N+](=O)[O-])o2)C(=O)N1 [Nitrofurantoin] | 8 to 16 | 16 (≈ 67.2 µM) | 16 (≈ 67.2 µM) | 64 (≈ 269 µM) |  |  |  |  |  |  |  |  |  |  |
| O=[N+]([O-])c1ccc(C=Cc2nc(Nc3ccc(O)cc3)c3cc(F)ccc3n2)o1 [Compound V, 6-fluoro-2-[2-(5-nitro-2-furyl)vinyl]-4-(p-hydroxyanilino)-quinazoline] |  | 0.015 (≈ 0.0382 µM) | 0.03 (≈ 0.0765 µM) | 0.06 (≈ 0.153 µM) | 0.016 (≈ 0.0408 µM) | 0.03 (≈ 0.0765 µM) | 0.06 (≈ 0.153 µM) | 0.03 to 0.25 (≈ 0.0765 to 0.637 µM) | 0.008 (≈ 0.0204 µM) | 0.016 (≈ 0.0408 µM) | 0.03 (≈ 0.0765 µM) | ≤ 2 | superior to ciprofloxacin | 250 (≈ 637 µM) |
